The subject of assay [1] is F21T (DNA, G4) GGGTTAGGGTTAGGGTTAGGG
The experiment in a line: FRET-melting. Particulars: K+ (CacoK10, Table S1); CacoK10 buffer; 1 μM compound, 0.2 μM nucleic acid; no competitor.

Assay [2] deals with F-Myc-T (DNA, G4) GAGGGTGGGGAGGGTGGGGAAG
The assay is described as follows: FRET-melting. As to conditions: K+ (CacoK1, Table S1); CacoK1 buffer; 1 μM compound, 0.2 μM nucleic acid; no competitor.

Assay [3] deals with F-Kit2-T (DNA, G4) CGGGCGGGCGCGAGGGAGGGG
The experiment in a line: FRET-melting. Particulars: buffer not stated in main text.

The subject of assay [4] is F-TERRA-T (RNA, G4) GGGUUAGGGUUAGGGUUAGGG
The assay is described as follows: FRET-melting. Particulars: K+ (CacoK1, Table S1); CacoK1 buffer; 1 μM compound, 0.2 μM nucleic acid; no competitor.

In assay [5] the test system is F-VEGF-T (RNA, G4) GGAGGAGGGGAGGAGGA
The experiment in a line: FRET-melting. Particulars: K+ (CacoK1, Table S1); CacoK1 buffer; 1 μM compound, 0.2 μM nucleic acid; no competitor.

In assay [6] the test system is F-NRAS-T (RNA, G4) GGGAGGGGCGGGUCUGGG
The assay is described as follows: FRET-melting. Particulars: 1 μM compound, 0.2 μM RNA; no competitor; buffer not stated.

Assay [7] concerns 5'Cy5-Myc (DNA, G4) GAGGGTGGGGAGGGTGGGGAAG
The experiment in a line: Cy5 fluorescence quenching titration. As to conditions: 50 mM TrisHCl/Triton buffer (Table S1), 25 °C; 20 nM DNA; apparent.

Assay [8] deals with F-22AG (DNA, G4) AGGGTTAGGGTTAGGGTTAGGG
The experiment in a line: streptavidin bead pull-down, FAM fluorescence. Particulars: Mg2+ (concentration in Table S1); 20 mM TrisHCl/MgCl2 buffer, 25 °C; 10 μM compound, 1 μM nucleic acid; no TASQ = 1.

The subject of assay [9] is F-Myc (DNA, G4) GAGGGTGGGGAGGGTGGGGAAG
The experiment in a line: streptavidin bead pull-down, FAM fluorescence. As to conditions: Mg2+ (concentration in Table S1); 20 mM TrisHCl/MgCl2 buffer, 25 °C; 10 μM compound, 1 μM nucleic acid; no TASQ = 1.

In assay [10] the test system is F-duplex (DNA, hairpin) TATAGCTATATTTTTTTATAGCTATA
The experiment in a line: streptavidin bead pull-down, FAM fluorescence. As to conditions: Mg2+ (concentration in Table S1); 20 mM TrisHCl/MgCl2 buffer, 25 °C; 10 μM compound, 1 μM DNA; no TASQ = 1.

Assay [11] relates to F-TERRA (RNA, G4) GGGUUAGGGUUAGGGUUAGGG
The assay is described as follows: streptavidin bead pull-down, FAM fluorescence. Particulars: Mg2+ (concentration in Table S1); 20 mM TrisHCl/MgCl2 buffer, 25 °C; 10 μM compound, 1 μM nucleic acid; no TASQ = 1.

Assay [12] concerns F-VEGF (RNA, G4) GGAGGAGGGGAGGAGGA
The experiment in a line: streptavidin bead pull-down, FAM fluorescence. Particulars: Mg2+ (concentration in Table S1); 20 mM TrisHCl/MgCl2 buffer, 25 °C; 10 μM compound, 1 μM nucleic acid; no TASQ = 1.

For assay [13], the system named is F-NRAS (RNA, G4) GGGAGGGGCGGGUCUGGG
The experiment in a line: streptavidin bead pull-down, FAM fluorescence. Particulars: Mg2+ (concentration in Table S1); 20 mM TrisHCl/MgCl2 buffer, 25 °C; 10 μM compound, 1 μM nucleic acid; no TASQ = 1.

For assay [14], the system named is G4-strand (97-nt ODN) (DNA, G4) TAGCCATTCAGCCGTAACAGGCAGTGGAAGAGAGACAGACAGGGCAGGGCAGGGCAGGGCAGTACAGTAGAACCTAATGGTGTTTGATGGTATCTAA
The experiment in a line: streptavidin bead pull-down, qPCR (SYBR green). Particulars: 40 μM compound, 4 μM DNA; fluorescence difference from no TASQ. (Quantitative PCR measures a nucleic acid by following its amplification.)

For `C#CCCCC(=O)NCC1CN(CCCCCNC(=O)CN(CCN)C(=O)Cn2cnc3c(=O)[nH]c(N)nc32)CCN(CCCCCNC(=O)CN(CCN)C(=O)Cn2cnc3c(=O)[nH]c(N)nc32)CCN(CCCCCNC(=O)CN(CCN)C(=O)Cn2cnc3c(=O)[nH]c(N)nc32)CCN1CCCCCNC(=O)CN(CCN)C(=O)Cn1cnc2c(=O)[nH]c(N)nc21` (centres unmarked), the ΔT1/2 in assay [1] amounted to 2.5 ± 0.2 °C; in [2], 5.3 ± 0.3 °C; in [3], 5.8 ± 0.2 °C; in [4] it was 11.0 ± 0.9 °C; in assay [5], 11.9 ± 0.4 °C; in [6], 11.8 ± 0.7 °C. Also, the appKD in assay [7] was determined as 1.44 ± 0.1 µM.
As to `C[n+]1cc(NC(=O)c2ccc3ccc4ccc(C(=O)Nc5cc6ccccc6[n+](C)c5)nc4c3n2)cc2ccccc21`, the appKD in assay [7] amounted to 0.0577 ± 0.0002 µM.
With `NCCN(CC(=O)NCCCCCN1CCN(CCCCCNC(=O)CN(CCN)C(=O)Cn2cnc3c(=O)[nH]c(N)nc32)CCN(CCCCCNC(=O)CN(CCN)C(=O)Cn2cnc3c(=O)[nH]c(N)nc32)C(CNC(=O)CCCC[C@@H]2SC[C@@H]3NC(=O)N[C@@H]32)CN(CCCCCNC(=O)CN(CCN)C(=O)Cn2cnc3c(=O)[nH]c(N)nc32)CC1)C(=O)Cn1cnc2c(=O)[nH]c(N)nc21` (some centres unmarked), the appKD in assay [7] amounted to 1.01 ± 0.1 µM. Moreover, the fold enrichment in [8] was found to be 15.9 ± 0.9 fold; in assay [9], 21.5 ± 0.1 fold; in assay [10] it was 0.9 ± 0.2 fold; in [11], 4.0 ± 0.0 fold; in assay [12], 8.2 ± 0.2 fold; in assay [13], 5.2 ± 0.9 fold. The compound also showed a ΔFI in assay [14] of 457.
Turning to `[N-]=[N+]=NCCCCCC(=O)NCC1CN(CCCCCNC(=O)CN(CCN)C(=O)Cn2cnc3c(=O)[nH]c(N)nc32)CCN(CCCCCNC(=O)CN(CCN)C(=O)Cn2cnc3c(=O)[nH]c(N)nc32)CCN(CCCCCNC(=O)CN(CCN)C(=O)Cn2cnc3c(=O)[nH]c(N)nc32)CCN1CCCCCNC(=O)CN(CCN)C(=O)Cn1cnc2c(=O)[nH]c(N)nc21` (centres unmarked), the ΔT1/2 in assay [1] was found to be 2.2 ± 0.3 °C; in [2] it was 6.4 ± 0.2 °C; in [3], 7.7 ± 1.0 °C; in assay [4], 12.4 ± 0.6 °C; in assay [5], 11.3 ± 0.4 °C; in [6], 14.6 ± 1.1 °C. Moreover, in assay [7], the appKD came to 0.90 ± 0.1 µM.

(Values after paper PMC10320843 (2023).)
